The subject of data set [1] is Rattus norvegicus. As to the kind of experiment: Toxicity in Rattus norvegicus Wistar albino (rat) Leydig cells assessed as morphological changes at 5 mg/kg, po after 15 days by electron transmission microscopic analysis relative to untreated control. The data set is classed as organism-based. The settings on record: in vivo, 360 h. On the set-up: dose 5 mg/kg, route oral.

In data set [2] the test system is Rattus norvegicus. The data set can be described thus: Induction of steroidogenesis in Rattus norvegicus Wistar albino (rat) Leydig cells assessed as increase in 22(R)-OH-C-induced testosterone level at 5 mg/kg, po after 15 days by radioimmunoassay (reference value: 83.5 +/- 3.36 no unit). The data set is classed as functional.
For data set [3], the system named is Rattus norvegicus. The data set can be described thus: Induction of steroidogenesis in Rattus norvegicus Wistar albino (rat) Leydig cells assessed as increase in pregnenolone-induced testosterone level at 5 mg/kg, po after 15 days by radioimmunoassay (reference value: 34 +/- 5.49 no unit). The data set is classed as functional.
The test system of data set [4] is Rattus norvegicus. The data set can be described thus: Induction of steroidogenesis in Rattus norvegicus Wistar albino (rat) Leydig cells assessed as increase in human chorionic gonadotropin-induced testosterone level at 5 mg/kg, po after 15 days by radioimmunoassay (reference value: 92.75 +/- 4.38 no unit). The data set is classed as functional.
In data set [5] the test system is Rattus norvegicus. The data set can be described thus: Toxicity in Rattus norvegicus Wistar albino (rat) assessed as change in relative dry weight of seminal vesicle at 5 mg/kg, po after 15 days. The data set is classed as organism-based. More on the design: dose 5 mg/kg, route oral. The settings on record: in vivo, 360 h.
Data set [6] has as its system Rattus norvegicus. As to the kind of experiment: Induction of steroidogenesis in Rattus norvegicus Wistar albino (rat) assessed as increase in total plasma testosterone level at 5 mg/kg, po after 15 days (reference value: 2.01 +/- 1.21 ng/mL). The data set is classed as functional.
In data set [7] the test system is Rattus norvegicus. The data set can be described thus: Induction of steroidogenesis in Rattus norvegicus Wistar albino (rat) Leydig cells assessed as increase in dbcAMP-induced testosterone level at 5 mg/kg, po after 15 days by radioimmunoassay (reference value: 69.83 +/- 1.85 no unit). The data set is classed as functional.
In data set [8] the test system is Rattus norvegicus. The data set can be described thus: Effect on P450scc expression in Rattus norvegicus Wistar albino (rat) Leydig cells at 5 mg/kg, po after 15 days by immunocytochemistry analysis relative to untreated control. More on the design: dose 5 mg/kg. In kind it is functional, organism-based.
Data set [9] relates to Rattus norvegicus. As to the kind of experiment: Toxicity in Rattus norvegicus Wistar albino (rat) assessed as change in relative weight of testis at 5 mg/kg, po after 15 days. In kind it is organism-based. The settings on record: in vivo, 360 h. More on the design: dose 5 mg/kg, route oral.
Data set [10] concerns Rattus norvegicus. The data set can be described thus: Effect on StAR expression in Rattus norvegicus Wistar albino (rat) Leydig cells at 5 mg/kg, po after 15 days by immunocytochemistry analysis relative to untreated control. In kind it is functional, organism-based. On the set-up: dose 5 mg/kg.
For data set [11], the system named is Rattus norvegicus. The data set can be described thus: Toxicity in Rattus norvegicus Wistar albino (rat) Leydig cells assessed as morphological changes at 5 mg/kg, po after 15 days by hematoxylin-eosin staining-based light microscopic analysis relative to untreated control. The settings on record: in vivo, 360 h. On the set-up: dose 5 mg/kg, route oral. In kind it is organism-based.

The subject of data set [12] is Rattus norvegicus. As to the kind of experiment: Toxicity in Rattus norvegicus Wistar albino (rat) assessed as change in body weight at 5 mg/kg, po after 15 days. In kind it is organism-based. On the set-up: dose 5 mg/kg, route oral. The settings on record: in vivo, 360 h.

Each structure is given as a SMILES string. The source made the active and inactive calls. The rule behind the calls is not given here.

As to `COc1cccc(OC)c1/C=C1\SC(=O)N(Cc2ccc(C)cc2)C1=O`, the Activity entry is “Non-toxic” in the data set on Rattus norvegicus [1]; “Non-toxic” with Rattus norvegicus [5]; 7.7 ng/mL with Rattus norvegicus [6]; “Non-toxic” in the data set on Rattus norvegicus [9]; “Non-toxic” in the data set on Rattus norvegicus [11]; “Non-toxic” in the data set with Rattus norvegicus [12]. For the same molecule, the testosterone level with Rattus norvegicus [2] is 118.3; with Rattus norvegicus [3] it was 56.66; in the data set with Rattus norvegicus [4], 164.1; in the data set on Rattus norvegicus [7], 154.16. The outcome with Rattus norvegicus [8] and with Rattus norvegicus [10] was inactive.

The values are drawn from ChEMBL document CHEMBL3046643, “Effect of chronic treatment with new benzylidene-thiazolidine-2,4-dione (LPSF/GQ-06) with potential hypoglycemic on rat Leydig cell steroidogenesis” (Med Chem Res, 2013).
